Among the data in PubChem BioAssay AID743181 (NMMLSC, 2013) are GFP+ cells, differentiation and EC50 values, retold here.

Test [1] in a line: differentiation promoters in HOXA9-arrested myeloid cells, SAR follow-up, HOXA9-ER marrow cells, GFP flow, set 1 (AID 743181). As to conditions: HOXA9-ER marrow cells, lysozyme-GFP differentiation, flow; at 10 µM (top of the series).
Test [2] has as its system HOXA9-ER marrow cells, lysozyme-GFP differentiation, flow. The description is as above.

The source made the active and inactive calls.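 How the source made its calls: active means at least 15% GFP+ cells at the top dose together with an EC50 below 10 µM; inactive means the rest.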

Consider `CC(=O)NCCC(=O)N[C@@H]1CCCc2ccccc21`, for which the GFP+ cells, differentiation in test [1] was 0% (inactive). Still for that read-out and setting: then `C[C@@H](NC(=O)CCNC(=O)c1ccc(Cl)cc1)c1ccccc1`, with 1% (inactive).

`O=C(CCNC(=O)c1ccc(Cl)cc1)N[C@H]1CCCc2ccccc21`: the GFP+ cells, differentiation in test [1] is 1% (inactive). Still for that read-out and setting: then `O=C(CNC(=O)c1ccc(Cl)c(Cl)c1)N[C@@H]1CCCc2ccccc21`, with 2% (inactive); and `O=C(NC1CCOc2ccccc21)C1CCCN(C(=O)c2ccc(Cl)cc2)C1` (stereo not given), with 1% (inactive). On to `O=C(CCCNC(=O)c1ccc(Cl)c(Cl)c1)N[C@@H]1CCCc2ccccc21`, for which the GFP+ cells, differentiation in test [1] was 1% (inactive).

As to `Cc1cccc(C(=O)NCCC(=O)NC2CCCc3ccccc32)c1` (stereo not given), in test [1], the GFP+ cells, differentiation was 1% (inactive). Regarding `O=C(Cc1ccc(Cl)cc1)NCCC(=O)N[C@@H]1CCCc2ccccc21`, the GFP+ cells, differentiation in test [1] is 16% (inactive). With `O=C(CCNC(=O)c1cccc(Cl)c1)N[C@@H]1CCCc2ccccc21`, in test [2], the EC50 (usually the concentration needed to bring the measured effect to its halfway point) is 5.42 µM. For `NCCC(=O)N[C@@H]1CCCc2ccccc21`, the GFP+ cells, differentiation in test [1] was 1% (inactive). As for `O=C(CCNC(=O)c1ccc(F)cc1)N[C@@H]1CCCc2ccccc21`, the GFP+ cells, differentiation in test [1] is 12% (inactive). As for `N#Cc1ccc(C(=O)NCCC(=O)N[C@@H]2CCCc3ccccc32)cc1`, in test [1], the GFP+ cells, differentiation is 16% (inactive). Consider `Cc1ccc(C(=O)NCCC(=O)N[C@@H]2CCCc3ccccc32)cc1`, for which the EC50 in test [2] was 8.68 µM. On the same count and under the same terms, with `O=C(CCNC(=O)c1ccc(Cl)c(Cl)c1)N[C@@H]1CCCc2ccccc21` the figure was 3.24 µM. Consider `O=C(CCCNC(=O)c1ccc(OC(F)(F)F)cc1)N[C@@H]1CCCc2ccccc21`, for which the GFP+ cells, differentiation in test [1] was 1% (inactive). For `O=C(CCCNC(=O)c1ccc(C(F)(F)F)cc1)N[C@@H]1CCCc2ccccc21`, in test [1], the GFP+ cells, differentiation is 1% (inactive). Turning to `O=C(CCNC(=O)c1ccccc1)N[C@@H]1CCCc2ccccc21`, in test [1], the GFP+ cells, differentiation was 3% (inactive). On the same count and under the same terms, then `CC(C)(C)OC(=O)NCCC(=O)N[C@@H]1CCCc2ccccc21`, with 1% (inactive); and `O=C(O)c1ccccc1OCc1ccccc1Br`, with 1% (inactive). In the case of `O=C(CCNC(=O)c1ccc2c(c1)OC(F)(F)O2)N[C@@H]1CCCc2ccccc21`, the 50% effective concentration (EC50) in test [2] is 4.69 µM. Regarding `O=C(CCNC(=O)c1ccc(C(F)(F)F)cc1)N[C@@H]1CCCc2ccccc21`, in test [2], the 50% effective concentration (EC50) was 2.63 µM.

As to `COc1ccc(C(=O)NCCC(=O)N[C@@H]2CCCc3ccccc32)cc1`, the EC50 in test [2] is 4.95 µM. Take `O=C(CCNC(=O)c1ccc(Cl)cc1)N[C@@H]1CCc2ccccc21`: the concentration for a half-maximal effect (EC50) in test [2] is 9.97 µM. As for `O=C(CCCNC(=O)c1ccc(Cl)cc1)N[C@@H]1CCCc2ccccc21`, the GFP+ cells, differentiation in test [1] was 2% (inactive). Regarding `O=C(CCNC(=O)c1ccc(Cl)cc1)NC1CCCCC1`, the GFP+ cells, differentiation in test [1] is 1% (inactive). On the same count and under the same terms, then `CC(NC(=O)C1CCCN(C(=O)c2ccc(Cl)cc2)C1)c1ccccc1` (stereo not given), with 0% (inactive); and `CC(C)(C)OC(=O)NCCC(=O)N[C@H]1CCCc2ccccc21`, with 1% (inactive). Turning to `O=C(CCNC(=O)c1ccc(Cl)cc1)N[C@@H]1CCCc2ccccc21`, the EC50 in test [2] is 3.47 µM. `O=C(CNC(=O)c1ccc(C(F)(F)F)cc1)N[C@@H]1CCCc2ccccc21`: the GFP+ cells, differentiation in test [1] was 1% (inactive).

On to `CC(c1ccccc1)N(C)C(=O)CCNC(=O)c1ccc(Cl)cc1` (stereo not given), for which, in test [1], the GFP+ cells, differentiation is 0% (inactive).

Regarding `CC(NC(=O)CCNC(=O)c1ccc(Cl)cc1)c1ccc2c(c1)OCO2` (stereo not given), the GFP+ cells, differentiation in test [1] is 0% (inactive). For the compound `Cc1ccc(C)c(OCCn2cc(C(=O)O)c3ccccc32)c1`, the GFP+ cells, differentiation in test [1] is 0% (inactive). Take `O=C(CNC(=O)c1ccc(OC(F)(F)F)cc1)N[C@@H]1CCCc2ccccc21`: in test [1], the GFP+ cells, differentiation is 1% (inactive). `O=C(CCNC(=O)c1ccc(OC(F)(F)F)cc1)N[C@@H]1CCCc2ccccc21`: in test [2], the concentration for a half-maximal effect (EC50) is 1.61 µM.

On to `O=C(CNC(=O)c1ccc(Cl)cc1)N[C@@H]1CCCc2ccccc21`, for which the GFP+ cells, differentiation in test [1] is 4% (inactive). Still for that read-out and setting: then `COc1ccccc1C(C)NC(=O)CCNC(=O)c1ccc(Cl)cc1` (stereo not given), with 0% (inactive). In the case of `O=C(CCNC(=O)c1ccc(Cl)cc1)NC1CCCc2ccccc21` (stereo not given), the 50% effective concentration (EC50) in test [2] is 5.06 µM. Take `O=C(NC1CCc2ccccc21)C1CCCN(C(=O)c2ccc(Cl)cc2)C1` (stereo not given): the GFP+ cells, differentiation in test [1] is 1% (inactive). Regarding `CC(NC(=O)CCNC(=O)c1ccc(Cl)cc1)c1ccc(F)cc1` (stereo not given), in test [1], the GFP+ cells, differentiation was 1% (inactive).

Turning to `O=C(O)c1cccnc1Nc1ccc(Cl)cc1`, the EC50 in test [2] is 5.4 µM.
